Data set [1] has as its target T1, MC5R (Homo sapiens, UniProt P33032).
T1 construct: host or cells: CHO-K1 (ECL assay)
Kind of data set: cAMP assay (EC50), MC5R. The class given is cell-based. To be noted: for Ratios of EC50 values MC5/4: EC50(MC5R)/EC50(MC4R). On the procedure:
Stimulation of intracellular cyclic AMP (cAMP) levels by the peptides is determined in a dose dependent manner by an electrochemiluminescence (ECL) assay (Meso Scale Discovery, Gaithersburg, MD, USA; referred to hereinafter as “MSD”). Briefly, the CHO-K1 cells stably expressing the hMC receptor subtypes are suspended in RMPI 1640® assay buffer (RMPI 1640 buffer contains 0.5 mM IBMX, and 0.2% protein cocktail (MSD blocker A)). About 7,000 cells/well of the transgenic CHO-K1 cells stably expressing hMC receptor subtypes 1, 3, 4 or 5 are dispensed in 384-well Multi-Array plates (MSD) containing integrated carbon electrodes and coated with anti-cAMP antibody. Increasing concentrations of the test compounds are added and the cells are incubated for approximately 40 minutes at 37° C. A cell lysis buffer (HEPES-buffered saline solution with MgCl2 and Triton X-100® at pH 7.3) containing 0.2% protein cocktail and 2.5 nM TAG™ ruthenium-labeled cAMP (MSD) is added and the cells are incubated for approximately 90 minutes at room temperature. At the end of the second incubation period, the read buffer (Tris-buffered solution containing an ECL co-reactant and Triton X-100 at pH 7.8) is added and the cAMP levels in the cell lysates are immediately determined by ECL detection with a Sector Imager 6000 Reader® (MSD). Data are analyzed using a computer-assisted non-linear regression analysis (XL fit; IDBS) and reported as either an EC50 value. […]
(§1) A chemiluminescence readout system that uses an enzyme fragment complementation (EFC) system with β-galactosidase (β-Gal) as the functional reporter system was used. This assay system for various melanocortin receptor systems is commercially available (cAMP Hunter GPCR assay system, Discoverx Corp, Fremont, CA). This assay utilizes the β-Gal enzyme that is split into two complementary portions; EA for Enzyme Acceptor and ED for Enzyme Donor. In the assay, the ED portion fused to cAMP is made to compete with cAMP generated by cells for binding to a cAMP-specific antibody. The EA is then added to form active β-Gal with any unbound ED-cAMP. This active enzyme then converts a chemiluminescent substrate to generate an output signal that is recorded on a standard microplate reader.
(§2) Briefly, 10000 cells per well are plated overnight and each well (cells incubated with 10 μl assay buffer) is then incubated with 4× serial concentration of the test compound in the cell assay buffer (5 μL) and cAMP antibody reagent (5 μL) for 30 min at 37° C. The cell lysis buffer (20 μL) containing ED-cAMP coupled enzyme fragment and the reporter substrate (Emerald II-Galacton Star, 5:1) is then added and incubated for 60 min at room temperature. Next, 20 μL of EA β-Gal fragment reagent is added.

For data set [2], the target named is T2, MC1R (Homo sapiens, UniProt Q01726).
T2 construct: host or cells: CHO-K1 (ECL assay)
The data set can be described thus: cAMP assay (EC50), MC1R. To be noted: EC50(MC1R)/EC50(MC4R). The class given is cell-based. Here is the method: (§3) Stimulation of intracellular cyclic AMP (cAMP) levels by the peptides is determined in a dose dependent manner by an electrochemiluminescence (ECL) assay (Meso Scale Discovery, Gaithersburg, MD, USA; referred to hereinafter as “MSD”). Briefly, the CHO-K1 cells stably expressing the hMC receptor subtypes are suspended in RMPI 1640® assay buffer (RMPI 1640 buffer contains 0.5 mM IBMX, and 0.2% protein cocktail (MSD blocker A)). About 7,000 cells/well of the transgenic CHO-K1 cells stably expressing hMC receptor subtypes 1, 3, 4 or 5 are dispensed in 384-well Multi-Array plates (MSD) containing integrated carbon electrodes and coated with anti-cAMP antibody. Increasing concentrations of the test compounds are added and the cells are incubated for approximately 40 minutes at 37° C. A cell lysis buffer (HEPES-buffered saline solution with MgCl2 and Triton X-100® at pH 7.3) containing 0.2% protein cocktail and 2.5 nM TAG™ ruthenium-labeled cAMP (MSD) is added and the cells are incubated for approximately 90 minutes at room temperature. At the end of the second incubation period, the read buffer (Tris-buffered solution containing an ECL co-reactant and Triton X-100 at pH 7.8) is added and the cAMP levels in the cell lysates are immediately determined by ECL detection with a Sector Imager 6000 Reader® (MSD). Data are analyzed using a computer-assisted non-linear regression analysis (XL fit; IDBS) and reported as either an EC50 value.
(§4) Human MC4-R transfected cells are grown to confluence in 96 well plates (plating approximately 250,000 cells per well). The cells are treated in triplicate sets with 0.2 mM isobutylmethylxanthine (IBMX) and graded concentrations of the peptide or alternatively the peptide in the presence of 20 nM NDP-MSH. Cells similarly treated but with only 20 nM NDP-MSH serve as positive controls in a volume of 200 μL. A buffer blank serving as a negative control is also included. After incubation of one hour at 37° C., the cells are lysed by the addition of 50 μL of a cell lysis buffer. Total cAMP accumulated in 250 μL of this incubation medium is quantitated using a commercially available low pH cAMP assay kit (Amersham BioSciences) as per procedure specified by the kit supplier. […] The data for agonist is plotted and curve fitted to determine the EC50 value. A peptide showing accumulation in the same range as the negative control (buffer blank in the absence of alpha-MSH) is ineffective at the test concentration. A peptide showing attenuated accumulation is considered to be an antagonist if there is inhibition in cAMP when alpha-MSH is also present in the assay. Similar assay can be performed with hMC-1R, hMC-3R, and hMC-5R cells.
as §1, with “ED-cAMP.” for “ED-cAMP. This active enzyme then converts a chemiluminescent substrate to generate an output signal that is recorded on a standard microplate reader.”
as §2

Data set [3] deals with T3, MC3R (Homo sapiens, UniProt P41968).
T3 construct: host or cells: CHO-K1 (ECL assay)
The data set can be described thus: cAMP assay (EC50), MC3R. The class given is cell-based. To be noted: EC50(MC3R)/EC50(MC4R). Here is the method:
as §3, §4
as §1, with “ED-cAMP.” for “ED-cAMP. This active enzyme then converts a chemiluminescent substrate to generate an output signal that is recorded on a standard microplate reader.”
as §2

Data set [4] in a line: Pharmacokinetics of formulations after single subcutaneous bolus in Cynomolgus monkeys. To be noted: cynomolgus monkey, plasma, sc, 0.5 mg/kg body weight. Type of data set: in vivo. Here is the method:
A group of Cynomolgus monkeys (average body weight range of 3 to 7 kg) were randomized into a group of 6 for each formulation described above and for Formulation 3A. Each monkey in the cohort was subcutaneously administered in the scapular area with a single bolus dose of a formulation calculated at 0.5 mg/kg body weight. Blood samples were taken at various time points staring at 30 minutes post dosing to 36 or 48 hours. The plasma was harvested and peptide drug concentration assays using LC-MS/MS technique. The pharmacokinetic data is presented in Table 3 below, and the pharmacokinetic profile is set forth graphically in FIG. 1, FIG. 2, and FIG. 3.

Structures are written as SMILES. Bridge positions count the residues as written; N and C are the ends. Square brackets hold non-standard residues; d marks the D form. Peptide text beside a SMILES is read from it. dPhe(4-F) = N[C@H](Cc1ccc(F)cc1)C(=O)O; Pen = CC(C)(S)[C@H](N)C(=O)O; hCys = N[C@@H](CCS)C(=O)O

T3 sequence (P41968 whole entry): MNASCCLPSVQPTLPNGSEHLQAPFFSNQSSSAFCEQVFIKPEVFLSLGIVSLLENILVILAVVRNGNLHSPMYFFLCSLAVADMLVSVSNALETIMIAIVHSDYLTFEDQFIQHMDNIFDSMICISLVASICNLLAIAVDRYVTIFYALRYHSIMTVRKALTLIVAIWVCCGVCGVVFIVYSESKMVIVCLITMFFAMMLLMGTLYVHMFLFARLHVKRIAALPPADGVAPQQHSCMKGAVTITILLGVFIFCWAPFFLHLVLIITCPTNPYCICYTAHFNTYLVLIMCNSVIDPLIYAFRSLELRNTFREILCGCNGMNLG
T1 sequence (P33032 whole entry): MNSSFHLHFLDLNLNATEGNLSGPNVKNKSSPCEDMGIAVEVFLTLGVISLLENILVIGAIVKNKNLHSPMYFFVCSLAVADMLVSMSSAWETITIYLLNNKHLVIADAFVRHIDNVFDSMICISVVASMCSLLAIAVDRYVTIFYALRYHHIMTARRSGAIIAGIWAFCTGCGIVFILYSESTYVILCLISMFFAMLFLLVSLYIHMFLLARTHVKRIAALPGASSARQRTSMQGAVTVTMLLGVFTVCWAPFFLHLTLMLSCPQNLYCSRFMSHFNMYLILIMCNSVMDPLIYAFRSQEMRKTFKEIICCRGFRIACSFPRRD
T2 sequence (Q01726 whole entry): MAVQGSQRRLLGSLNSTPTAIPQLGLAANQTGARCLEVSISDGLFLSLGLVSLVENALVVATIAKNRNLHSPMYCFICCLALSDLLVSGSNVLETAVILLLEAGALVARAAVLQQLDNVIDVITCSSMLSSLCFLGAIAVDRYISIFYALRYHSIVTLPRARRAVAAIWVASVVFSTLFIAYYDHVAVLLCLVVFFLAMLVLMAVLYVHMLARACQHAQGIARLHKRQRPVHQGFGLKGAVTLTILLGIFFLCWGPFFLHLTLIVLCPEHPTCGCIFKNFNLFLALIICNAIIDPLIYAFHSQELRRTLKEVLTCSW

With `CC(=O)N[C@@H](CCCNC(=N)N)C(=O)N[C@H]1CSSC[C@@H](C(N)=O)NC(=O)[C@H](Cc2c[nH]c3ccccc23)NC(=O)[C@H](CCCNC(=N)N)NC(=O)[C@@H](Cc2ccccc2)NC(=O)[C@@H]2CCCN2C(=O)[C@@H](C)NC1=O` [Compound 13, Ac-Arg-cyclo[Cys-D-Ala-Pro-D-Phe-Arg-Trp-Cys]-NH2] (Ac-RC[dA]P[dF]RWC-NH2; disulfide 2-8), the “Ratios of EC50 values MC5/4” value in data set [1] is reported as 13. Moreover, the “Ratios of EC50 values MC1/4” value in data set [2] is listed as 5. Further, the “Ratios of EC50 values MC3/4” value in data set [3] is more than 200.
The matching figures for `CC(=O)N[C@@H](CCCNC(=N)N)C(=O)N[C@H]1CSSC[C@@H](C(N)=O)NC(=O)[C@H](Cc2c[nH]c3ccccc23)NC(=O)[C@H](CCCNC(=N)N)NC(=O)[C@@H](Cc2ccc(F)cc2)NC(=O)[C@@H]2CCCN2C(=O)[C@@H](C)NC1=O` [Compound 14, Ac-Arg-cyclo[Cys-D-Ala-Pro-D-Phe(p-F)-Arg-Trp-Cys]-NH2] (Ac-RC[dA]P[dPhe(4-F)]RWC-NH2; disulfide 2-8): 12, 7 and more than 400.
For `CC(=O)N[C@@H](CCCNC(=N)N)C(=O)N[C@H]1CCSSC[C@@H](C(N)=O)NC(=O)[C@H](Cc2c[nH]c3ccccc23)NC(=O)[C@H](CCCNC(=N)N)NC(=O)[C@@H](Cc2ccccc2)NC(=O)[C@H](C)NC1=O` [Compound 15, Ac-Arg-cyclo[hCys-Ala-D-Phe-Arg-Trp-Cys]-NH2] (Ac-R[hCys]A[dF]RWC-NH2; disulfide 2-7), in that order: 161, 15 and 3.8.
For `CC(=O)N[C@@H](CCCNC(=N)N)C(=O)N[C@H]1CCSSC[C@@H](C(N)=O)NC(=O)[C@H](Cc2c[nH]c3ccccc23)NC(=O)[C@H](CCCNC(=N)N)NC(=O)[C@@H](Cc2ccccc2)NC(=O)[C@@H](C)NC1=O` [Compound 16, Ac-Arg-cyclo[hCys-D-Ala-D-Phe-Arg-Trp-Cys]-NH2] (Ac-R[hCys][dA][dF]RWC-NH2; disulfide 2-7), in that order: more than 1338, 120 and 420.
In the case of `CC(=O)N[C@@H](CCCNC(=N)N)C(=O)N[C@H]1CCSSC(C)(C)[C@@H](C(N)=O)NC(=O)[C@H](Cc2c[nH]c3ccccc23)NC(=O)[C@H](CCCNC(=N)N)NC(=O)[C@@H](Cc2ccccc2)NC(=O)[C@@H](C)NC1=O` [Compound 17, Ac-Arg-cyclo[hCys-D-Ala-D-Phe-Arg-Trp-Pen]-NH2] (Ac-R[hCys][dA][dF]RW[Pen]-NH2; disulfide 2-7), the “Ratios of EC50 values MC5/4” value in data set [1] was 159. The “Ratios of EC50 values MC1/4” value in data set [2] is reported as 15. Moreover, the “Ratios of EC50 values MC3/4” value in data set [3] came to 17.
The matching figures for `CC(=O)N[C@@H](CCC(=O)O)C(=O)N[C@H]1CSSC[C@@H](C(N)=O)NC(=O)[C@H](Cc2c[nH]c3ccccc23)NC(=O)[C@H](CCCNC(=N)N)NC(=O)[C@@H](Cc2ccccc2)NC(=O)[C@H](Cc2c[nH]cn2)NC(=O)[C@H](C)NC1=O` [Compound 22, Ac-Glu-cyclo[Cys-Ala-His-D-Phe-Arg-Trp-Cys]-NH2] (Ac-ECAH[dF]RWC-NH2; disulfide 2-8): more than 2563, more than 3 and more than 20.
For `CC(=O)N[C@@H](CCCNC(=N)N)C(=O)N[C@H]1CSSC[C@@H](C(N)=O)NC(=O)[C@H](Cc2c[nH]c3ccccc23)NC(=O)[C@H](CCCNC(=N)N)NC(=O)[C@@H](Cc2ccccc2)NC(=O)[C@H](Cc2c[nH]cn2)NC(=O)[C@@H](C)NC1=O` [Peptide 1], in data set [1], the EC50 worked out at 1600 nM. Further, in data set [4], the highest level (Cmax) was 1100 ng/mL and the Tmax came out at 30 min.

These data come from patent US12285460B2, “Pharmaceutical compositions” (RHYTHM PHARMACEUTICALS, INC., priority 2013, dated 2025).
